# Source: patent US9725490B2, “ERAP1-derived peptide and use thereof” (TOKUSHIMA UNIVERSITY, priority 2011, dated 2017)
# Where a SMILES comes first, the peptide text is derived from it. The star is where a group is joined. Cbz = O=C(OCc1ccccc1)*
# Key:
# [1] = test system: phosphorylation of ERAP1 and PHB2/REA; test: PKA inhibition by H-89, immunoblotting of ERAP1 and PHB2/REA phosphorylation, MCF-7; format: cell-based, human
# Protocol: Then, the cell lysate solution was immunoprecipitated with anti-ERAP1 antibody. Furthermore, the phosphatase activity of the obtained sample was calculated. […] MCF-7 cells suppressed for expression of PKA or PKB, or both of PKA and PKB by siRNA method, were treated with 10 μM ERAP1 peptide. Then, immediately, the cells were stimulated with 10 nM E2 for 24 hours. […] MCF-7 cells were treated with H-89 for 30 minutes and washed with PBS. Then, the cells were treated with 10 μM ERAP1-PEPTIDE. Then, immediately, the cells were stimulated with 10 nM E2 for 24 hours. […] (S39) is caused. MCF-7 cells suppressed for expression of PKA by siRNA method, were stimulated with 10 nM E2 for 24 hours. In addition, MCF-7 cells were treated with H-89 for 30 minutes and washed with PBS. Then, immediately, the cells were stimulated with 10 nM E2 for 24 hours. […] Then, immediately, the cells were stimulated with 10 nM E2 for 24 hours. […] MCF-7 cells suppressed for expression of PKCα by siRNA method were treated with 10 μM ERAP1 peptide. Then, immediately, the cells were stimulated with 10 nM E2 for 24 hours. The cells were fractionated into cytoplasm and nuclear fractions by specific gravity centrifugation.
# ERα = ERα down-regulation and polyubiquitination in MCF-7 cells; format: cell-based, human; conditions: MCF-7, E2 in the presence of MG132, no peptide
# Protocol: FIG. 4-5 is a diagram illustrating that the ERAP1-peptide promotes nuclear translocation of PHB2. […] Then, the protein level and the mRNA level for the expression of ERα were obtained by Western blotting (the upper panel: Protein) and semi-quantitative RT-PCR (the lower panel: mRNA), respectively. β-actin is a loading control for each. […] MCF-7 cells were treated with the ERAP1-peptide and/or E2 in the presence of 1 μM MG-132 for 1 hour. Then, the cell lysate was immunoprecipitated with anti-ERα antibody.
# Down-regulation of ERα was evaluated by semi-quantitative reverse transcription PCR. Complete RNA was extracted using RNeasy Mini purification kit (Qiagen) from E2-treated cells in the presence or in the absence of the ERAP1 peptide, and reverse-transcribed into cDNA using Superscript II reverse transcriptase (Invitrogen), oligo dT primer (nvitrogen) and 25 mM dNTP Mixture (Invitrogen). mRNAs of ERα and β-actin were measured with GeneAmp PCR system (Applied Biosystems, Foster, Calif., USA). The primers are as described below: […]
# [2] = test system: transcriptional activity of ERα (AP-1); test: AP-1-luciferase reporter assay in MCF-7 cells; format: cell-based, human; conditions: 10 nM E2 24 hours
# Protocol: (§1) FIG. 3-3 is as diagram illustrating the results of the luciferase assay by which the inhibition effect of the ERAP1-peptide was evaluated. MCF-7 cells temporarily transfected with an ERE-luciferase reporter vector (F) or an AP-1-luciferase reporter vector (F) were treated with the ERAP1-peptide, the scramble peptide or the mutant peptide in the concentrations shown in the […]. Then, immediately, the cells were stimulated with 10 nM E2 for 24 hours. TAM indicates the tamoxifen treatment.
# (§2) FIG. 4-3 is a diagram illustrating that the ERAP1-peptide promotes nuclear translocation of PHB2. (C) and (D) are figures that show the results of the luciferase assay by which the inhibition effect of the ERAP1-peptide on the ERα transcriptional activity was evaluated. MCF-7 cells temporarily transfected with an ERE-luciferase reporter vector (C) or an AP-1-luciferase reporter vector (D) were treated with the ERAP1-peptide in the concentrations shown in the figure or 10 nM tamoxifen. Then, immediately, the cells were stimulated with 10 nM E2 thr 24 hours.
# (§3) For ERE reporter assay, MCF-7 cells were transfected with ERE reporter (SABiosciences, Frederick, Md., USA) in accordance with the instruction of the manufacturer. For AP-1 reporter assay, MCF-7 cells were transfected with AP-1 reporter (mouse IL-11 promoter comprising two tandem AP-1 sites subcloned into PGL2-basic vector), c-fos, c-Jun and pRL-TK as an internal standard. After 16 hours from the transfection, the culture medium was exchanged with an assay culture medium (Opti-MEM, 10% FBS, 0.1 mM NEAA, 0.1 mM Sodium pyruvate and 10 μg/ml insulin) After 24 hours from the transfection, the cells were treated with E2 and/or the ERAP1-peptide or 24 hours. The cells were harvested, and the activities of luciferase and Renilla-luciferase were evaluated using Promega dual luciferase reporter assay (Tokyo, Japan). In consideration of the transfection efficiency, all of the data were standardized by the activity of Renilla-luciferase.
# [3] = test system: transcriptional activity of ERα (ERE); test: ERE-luciferase reporter assay in MCF-7 cells; format: cell-based, human; conditions: 10 nM E2 24 hours
# Protocol: FIG. 3-2 is a diagram illustrating promotion effect of PHB2 nuclear translocation and suppression effect of the transcriptional activation of ER by ERAP1-peptide treatment. (C) illustrates representative images of stained immune cells, showing the localization of the ERAP1-peptide (HA-tagged ERAP1-peptide) and PHB2. MCF-7 cells were treated with 10 μM HA-tagged ERAP1-peptide for 24 hours in the presence or in the absence of 10 nM E2. After the immobilization, the cells were subjected to immunonfluorescent staining using an anti-HA antibody, an anti-PHB2 antibody and DAPI (for discriminating the nucleus). The arrow indicates the nuclear-translocated ERAP1-peptide. […] Then, immediately, the cells were stimulated with 10 nM E2 for 24 hours. TAM indicates the tamoxifen treatment.
# as §1, §2, §3
# [4] = biological target: T1, binding of inherent ERAP1 and inherent PHB2/REA (Homo sapiens, UniProt Q99623); test: Inhibition of ERAP1-PHB2/REA binding in cells, immunoprecipitation-Western blotting; format: cell-based; conditions: MCF-7 and KPL-3C cells; 10 μM peptide; 10 nM E2 24 hours
# T1 construct: endogenous in cells; host or cells: MCF-7 and KPL-3C breast cancer cells
# T1 sequence (Q99623 2-299 limits assumed): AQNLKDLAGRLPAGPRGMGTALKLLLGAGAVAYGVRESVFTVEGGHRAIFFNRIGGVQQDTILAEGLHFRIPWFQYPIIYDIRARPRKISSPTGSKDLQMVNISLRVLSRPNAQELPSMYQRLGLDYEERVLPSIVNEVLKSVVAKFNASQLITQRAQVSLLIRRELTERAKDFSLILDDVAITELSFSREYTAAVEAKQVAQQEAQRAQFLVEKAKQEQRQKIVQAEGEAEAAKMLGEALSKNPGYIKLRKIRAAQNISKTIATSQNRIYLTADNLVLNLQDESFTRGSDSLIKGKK
# MCF-7 cells = test: E2-dependent cell proliferation assay (MTT/CCK-8), MCF-7; format: cell-based, human; conditions: 10 nM E2, up to 24 hours
# Protocol: FIG. 6-1 is a diagram illustrating that ERAP1-peptide treatment suppresses ERα-dependent cell proliferation of breast cancer cell lines. (A) and (B) show the results of MTT assay by which the inhibition effect of the ERAP1-peptide in the E2-dependent cell proliferation was evaluated. MCF-7 cells were treated with the ERAP1-peptide (A, B) the ERAP1-scramble peptide (B) or the ERAP1-mutant peptide (B).
# FIG. 7-1 is a diagram illustrating that ERAP1-peptide treatment suppresses ERα-dependent cell proliferation of breast cancer cell lines. […] KPL-3C cells were treated with the ERAP1-peptide, the scramble peptide or the mutant peptide. Then, immediately, the cells were stimulated with 10 nM E2 for 24 hours. […] Then, immediately, the cells were stimulated with 10 nM E2. Then, the ERAP1-peptide was added every day for […]. […] The arrow indicates addition of the ERAP1-peptide.
# FIG. 7-3 is a diagram illustrating that ERAP1-peptide treatment suppresses ERα-dependent cell proliferation of breast cancer cell lines. […] MCF-7 cells were treated with 10 μM ERAP1-peptide. Then, immediately, the cells were stimulated with 10 nM E2 (white square). Then, 10 μM ERAP1-peptide was added every day for four days (black square).
# FIG. 20 is a diagram illustrating the results of evaluations for the influence of the difference of the sequence on E2-dependent cell proliferation suppression effect. […] Then, immediately, the cells were stimulated with E2 for 24 hours.
# MCF-7 cells were suspended in MEM (Invitrogen, Carlsbad, Calif., USA) reinforced with 10% FBS (Nichirei Biosciences, Tokyo, Japan), 1% antibiotic/antimycotic solution (Invitrogen), 0.1 mM NEAA (Tnvitrogen), 1 mM sodium pyruvate and 10 μg/ml insulin (Sigma, St. Louis, Mo., USA). Then, the cell suspension was seeded in a 48-well plate (2×10^4 cells/200 μl), a 24-well plate (1×10^5 cells/1 ml), a 6-well plate (5×10^5 cells/2 ml) or 10 cm dish (2×10^6 cells/10 ml). The cells were maintained at 37° C. in humidified atmosphere containing 5% carbon dioxide. On the next day of the seeding, the culture medium was exchanged with phenol red-free DMEM/F12 (Invitrogen) reinforced with FBS, an antibiotic/antimycotic solution, NEAA, sodium pyruvate and insulin. After 24 hours, the cells were treated with 10 nM 17β estradiol (E2, Sigma). The ERAP-1 peptide was added just before the E2 stimulation in the inhibition test.
# Using Cell-Counting Kit-8 (CCK-8, Dojindo, Kumamoto, Japan), the cell proliferation assay was performed. […] Then, the absorbance at 450 nm was measured and the number of living cells in each well was calculated.
# The cell proliferation assay was evaluated using Cell-Counting Kit-8 (CCK-8, Dojindo, Kumamoto, Japan). […] Then, 100 μl from each well was moved to a 96-well plate, and the absorbance at 450 nm was measured with a microplate reader.
# [5] = H-89 30 minutes, then E2 24 hours
# [6] = comparison with siPKA, increasing dose of H-89
molecule,measurement,setting,value
O=S(=O)(NCCNC/C=C/c1ccc(Br)cc1)c1cccc2cnccc12 [H-89],phosphorylation of the threonine residue of ERAP1,[1]; [5],decreased in dose-dependent manner
same,phosphorylations of the serine and tyrosine residues of ERAP1,[1]; [5],remarkably decreased at 0.5 μM
same,Ser39 phosphorylation of PHB2/REA after E2 treatment,[1]; [6],"as the dose of H-89 increased, Ser39 phosphorylation of PHB2/REA also decreased"
same,phosphorylation of the serine residue of ERAP1 after E2 treatment,[1]; [6],"as the dose of H-89 increased, disappearance of the phosphorylation was confirmed"
same,phosphorylation of Ser39 of PHB2/REA,"[1]; stimulated by E2 and treated with H-89, no peptide",remarkable recovery was recognized
same,phosphorylation of Ser39 of PHB2/REA,"[1]; with ERAP-peptide, 20 μM H-89",the phosphorylation completely disappeared
"CC(C)C[C@@H](C=O)NC(=O)[C@H](CC(C)C)NC(=O)[C@H](CC(C)C)NC(=O)OCc1ccccc1 [MG132, reference compound] (Cbz-Leu-Leu-Leu-aldehyde)",protein decrease and polyubiquitination of ERα with E2,ERα,the protein decrease of ERα was suppressed and polyubiquitination of ERα was recognized
AMLSALTLALRQR (SEQ ID NO: 29) (ERAP1-mutant peptide),transcriptional activity of ERα in AP-1,[2],no change was recognized
same,transcriptional activity of ERα in ERE,[3],no change was recognized
same,inhibition of the binding of inherent ERAP1 and inherent PHB2/REA,[4],not recognized in any of the cells
"ATLSQMLSDLTLQ (SEQ ID NO: 30) (ERAP1 dominant negative peptide) [ERAP1-peptide-2, 161-173 amino acid residues of ERAP1]",E2-dependent cell proliferation,MCF-7 cells,suppressed the E2-dependent cell proliferation in dose-dependent manner
